In patent US4889854A, “Tricyclic pyridone derivatives” (Hoffman-La Roche Inc., priority 1987, dated 1989):

How the values were obtained:
[1] = test system: spasmodic seizures caused by pentetrazole; experiment: antipentetrazole test (oral administration, mice); format: in vivo; conditions: Mus musculus, 30 minutes before 120 mg/kg pentetrazole i.p., dosage which protects 50% of the animals, Probit method
Protocol: As mentioned earlier, the compounds of formula A have valuable pharmacological properties. In particular, they display pronounced muscle relaxant, sedative-hypnotic, anticonvulsive and/or anxiolytic properties and have only a low toxicity.
(§1) In this animal experiment, the compound under investigation is administered orally to mice and 30 minutes later they are administered intraperitoneally 120 mg/kg of pentetrazole, which causes emprosthotonus and tonic stretchings of the fore and/or hind limbs in unprotected animals, 1-4 minutes after the injection. Ten (10) experimental animals are used per dosage of test substance. After counting the protected experimental animals, the ED50 is determined according to the known Probit method. The ED50 is that dosage which protects 50% of the experimental animals from the spasmodic seizures caused by pentetrazole. The results which have been obtained with representative members of the class of compound defined by formula A in the experiment described previously are compiled in the following Table. Moreover, the Table contains data concerning the acute toxicity (LD50) of some of these compounds in mg/kg in the case of single oral administration to mice.

[2] = acute toxicity, single oral administration to mice; conditions: mouse, in vivo, single oral administration (p.o.)
Protocol: as §1

COC1CN(C(=O)c2cc(-c3ccccc3)c(=O)n3c2-c2sccc2C(C)N3)C1 (racemic) [F, rac-1-[(4,5-dihydro-4-methyl-7-oxo-8-phenyl-7H-pyrido[1,2-b]thieno[2,3-d]pyridazin-10-yl)carbonyl]-3-methoxyazetidine]
ED50 [1]: 3.3 mg/kg
LD50 [2]: 3000 mg/kg

COC1CN(C(=O)c2cc(-c3ccccc3)c(=O)n3c2-c2cc(Cl)ccc2CN3)C1 [C, 1-[(10-chloro-6,7-dihydro-4-oxo-3-phenyl-4H-pyrido[2,1-a]phthalazin-1-yl)carbonyl]-3-methoxyazetidine]
ED50 [1]: 0.56 mg/kg

O=C(c1cc(-c2ccccc2)c(=O)n2c1-c1cc(Cl)ccc1CN2)N1CCOCC1 [Compound A, 4-[(10-chloro-6,7-dihydro-4-oxo-3-phenyl-4H-pyrido[2,1-a]phthalazin-1-yl)carbonyl]morpholine]
ED50 [1]: 3.1 mg/kg
LD50 [2]: > 3000 mg/kg

COC[C@H]1CCCN1C(=O)c1cc(-c2ccccc2)c(=O)n2c1-c1cc(Cl)ccc1CN2 [Compound B, (R)-1-[(10-chloro-6,7-dihydro-4-oxo-3-phenyl-4H-pyrido[2,1-a]phthalazin-1-yl)carbonyl]-2-(methoxymethyl)pyrrolidine]
ED50 [1]: 0.44 mg/kg
LD50 [2]: > 3000 mg/kg

CN(C)C(=O)c1cc(-c2ccccc2)c(=O)n2c1-c1cc(Cl)ccc1CN2 [D, 10-chloro-6,7-dihydro-N,N-dimethyl-4-oxo-3-phenyl-4H-pyrido[2,1-a]-phthalazine-1-carboxamide]
ED50 [1]: 0.23 mg/kg

CO[C@@H]1CCN(C(=O)c2cc(-c3ccccc3)c(=O)n3c2-c2sccc2CN3)C1 [E, (R)-1-[(4,5-dihydro-7-oxo-8-phenyl-7H-pyrido[1,2-b]thieno[2,3-d]pyridazin-10-yl)carbonyl]-3-methoxypyrrolidine]
ED50 [1]: 1.4 mg/kg

COC1CN(C(=O)c2cc(-c3ccccc3)c(=O)n3c2-c2sccc2CN3C)C1 [G, 1-[(4,5-dihydro-5-methyl-7-oxo-8-phenyl-7H-pyrido[1,2-b]thieno[2,3-d]pyridazin-10-yl)carbonyl]-3-methoxyazetidine]
ED50 [1]: 8.2 mg/kg
LD50 [2]: > 5000 mg/kg

CN(C)C(=O)c1cc(-c2ccccc2)c(=O)n2c1-c1sccc1CN2 [H, 4,5-dihydro-N,N-dimethyl-7-oxo-8-phenyl-7H-pyrido[1,2-b]thieno[2,3-d]pyridazine-10-carboxamide]
ED50 [1]: 0.29 mg/kg
LD50 [2]: > 5000 mg/kg
